According to US20060058966A1, “Methods and systems for guiding selection of chemotherapeutic agents” (priority 2004, published 2006):

Experiments:
Format in all cases: cell-based, human
[1] = tested on: tumor of patient suffering from ovarian cancer; assay: ATP-TCA assay of tumor samples of patient one; conditions: for Initial Therapeutic Index: tumor response curves ranked by AUC-1, high index = more effective
Description: Briefly, the ATP-TCA assay is conducted as follows. First, aseptically obtained solid tumor specimens are dispersed using, e.g. surgical scissors and scalpels. Subsequently, tissue fragments of 0.5 to 2 mm in diameter are enzymatically dissociated into a cell suspension of single cells and small aggregates by incubation for 4-18 h in 5-10 ml sterile collagenase-containing enzyme preparation such as tumor dissociation enzyme preparation, TDE. Commercially available from Atlantic Scientific, Fort Lauderdale, Fla., or from DCS Innovative Diagnostic Systeme GmbH, Hamburg, Germany. Alternatively, tissue fragments are dissociated using 1.5 mg/ml collagenase H (Sigma Chemical, St. Lewis, Mo.) or by mechanical desegregation. (see, […] al., 1997, Anticancer Drugs, 8:756-762) After filtration and ficoll-hypaque density centrifugation, e.g. (Lymphoprep®, ICN Flow, […], Germany; Histopaque, Sigma Chemical, St. […] A serum-free Complete Assay medium (CAM) available from DCS Innovative Diagnostik Systeme GmbH, Hamburg, Germany is added and cell suspensions then are adjusted to a final concentration of 1-2×10^5 viable cells per ml. […] Test drug concentrations (TDC) are prepared directly on the plates by serial 1:2-dilutions of the individual stock solutions. […] Appropriate controls, e.g., one with CAM, i.e., no inhibition control, (MO) and the other with Maximum ATP Inhibitor (MI) instead of the cytostatics, can be used in six wells of every culture plate. Subsequently, a sample, e.g. 100 μl of single cell suspension (i.e., 10,000- 20,000 cells) is added to each well. Cultures are incubated at 37° C. and 95% humidity in a 95% air, 5% CO2 atmosphere. After 5-7 days of incubation, another cytological analysis is performed in untreated MO controls. Subsequently, intracellular ATP is extracted and stabilized. Then 50 μl aliquots of each lysate is then transferred to a liminometer, e.g. a LB-953 liminometer (Berthold, Wildbad, Germany). ATP is measured, e.g. by the “firefly” light reaction after automatically pipetting 55 μl of Luciferin-Luciferase-Reagent (Lu-Lu) to each cell extract. Luminescence response expressed as Relative Light Units (RLU=photons/10) is counted for 10 seconds with a 4 second delay. An ATP standard curve is performed for all assays. […] End assays are also sampled for pathology, proof that the final wells after treatment contain tumor not benign cells. The following illustrates assignment of a Preliminary Rank or Order to a drug(s) or agent(s) based on the results of ATP-TCA assays of patient tumors presented in representative FIGS. 4A-C. All ATP-TCA assays were conducted as described previously herein in detail (see also, e.g., Andreotti et al., 1995, Cancer Res. 55:5276-82; Kurbacher et al., 1996, Breast Cancer Res. Treat., 41:161-70). FIG. 4A illustrates assay results were obtained with samples of a tumor of patient […] suffering from ovarian cancer. The results of an ATP-TCA assay are graphically presented (FIG. 4A) as a plot of (TDC) Test Drug Concentration (%) versus Tumor Growth Inhibition (%) (i.e., ATP test activity/ATP control×100%). (Carboplatin is abbreviated in FIGS. 4A-B as CBDCA.) The tumor response curves presented in FIG. 4A are ranked as described herein as if they were reference data. The numerical measure used is the AUC-I test. […] Alternative, the range from the least to the greatest response can be divided into 10 segments and the curves are assigned to their corresponding segments.

[2] = tested on: tumor of patient also suffering from ovarian cancer; assay: ATP-TCA assay of tumor samples of patient two; conditions: for Initial Therapeutic Index: indexed as for patient one
Description: Briefly, the ATP-TCA assay is conducted as follows. First, aseptically obtained solid tumor specimens are dispersed using, e.g. surgical scissors and scalpels. Subsequently, tissue fragments of 0.5 to 2 mm in diameter are enzymatically dissociated into a cell suspension of single cells and small aggregates by incubation for 4-18 h in 5-10 ml sterile collagenase-containing enzyme preparation such as tumor dissociation enzyme preparation, TDE. Commercially available from Atlantic Scientific, Fort Lauderdale, Fla., or from DCS Innovative Diagnostic Systeme GmbH, Hamburg, Germany. Alternatively, tissue fragments are dissociated using 1.5 mg/ml collagenase H (Sigma Chemical, St. Lewis, Mo.) or by mechanical desegregation. (see, e.g., Myatt et al., 1997, Anticancer Drugs, 8:756-762) After filtration and ficoll-hypaque density centrifugation, e.g. (Lymphoprep®, ICN Flow, Meckenheim, Germany; Histopaque, Sigma Chemical, St. Louis, Mo.), the quality and viability of resultant single cell suspensions are determined e.g., by trypan blue dye exclusion (0.2% Merck, Darmstadt, Germany) and by subsequent cytological examination. A serum-free Complete Assay medium (CAM) available from DCS Innovative Diagnostik Systeme GmbH, Hamburg, Germany is added and cell suspensions then are adjusted to a final concentration of 1-2×10^5 viable cells per ml.
Drug assays can be performed in 96-well polypropylene microtiter plates (round-bottom). Test drug concentrations (TDC) are prepared directly on the plates by serial 1:2-dilutions of the individual stock solutions. Each drug is tested by continuous exposure in triplicate at a number, e.g., six different concentrations ranging from 6.25% to 200% of test drug concentration.
Subsequently, a sample, e.g. 100 μl of single cell suspension (i.e., 10,000- 20,000 cells) is added to each well. Cultures are incubated at 37° C. and 95% humidity in a 95% air, 5% CO2 atmosphere.
After 5-7 days of incubation, another cytological analysis is performed in untreated MO controls. Subsequently, intracellular ATP is extracted and stabilized. Then 50 μl aliquots of each lysate is then transferred to a liminometer, e.g. a LB-953 liminometer (Berthold, Wildbad, Germany). ATP is measured, e.g. by the “firefly” light reaction after automatically pipetting 55 μl of Luciferin-Luciferase-Reagent (Lu-Lu) to each cell extract. Luminescence response expressed as Relative Light Units (RLU=photons/10) is counted for 10 seconds with a 4 second delay. An ATP standard curve is performed for all assays. MO should be greater than 100 pg/ml ATP. Assays showing mean RLU values of less than 20,000 (MO), a MI/MO-ratio>0.01, or evidence of microbiological contamination are regarded as non-evaluable. End assays are also sampled for pathology, proof that the final wells after treatment contain tumor not benign cells.
All ATP-TCA assays were conducted as described previously herein in detail (see also, e.g., Andreotti et al., 1995, Cancer Res. 55:5276-82; Kurbacher et al., 1996, Breast Cancer Res. Treat., 41:161-70).

[3] = tested on: tumor of a pancreatic cancer patient; assay: ATP-TCA assay of tumor samples of a pancreatic cancer patient; conditions: pancreatic cancer sample
Description: Briefly, the ATP-TCA assay is conducted as follows. First, aseptically obtained solid tumor specimens are dispersed using, e.g. surgical scissors and scalpels. Subsequently, tissue fragments of 0.5 to 2 mm in diameter are enzymatically dissociated into a cell suspension of single cells and small aggregates by incubation for 4-18 h in 5-10 ml sterile collagenase-containing enzyme preparation such as tumor dissociation enzyme preparation, TDE. Commercially available from Atlantic Scientific, Fort Lauderdale, Fla., or from DCS Innovative Diagnostic Systeme GmbH, Hamburg, Germany. Alternatively, tissue fragments are dissociated using 1.5 mg/ml collagenase H (Sigma Chemical, St. Lewis, Mo.) or by mechanical desegregation. […] A serum-free Complete Assay medium (CAM) available from DCS Innovative Diagnostik Systeme GmbH, Hamburg, Germany is added and cell suspensions then are adjusted to a final concentration of 1-2×10^5 viable cells per ml. […] Test drug concentrations (TDC) are prepared directly on the plates by serial 1:2-dilutions of the individual stock solutions. […] Subsequently, a sample, e.g. 100 μl of single cell suspension (i.e., 10,000- 20,000 cells) is added to each well. Cultures are incubated at 37° C. and 95% humidity in a 95% air, 5% CO2 atmosphere. After 5-7 days of incubation, another cytological analysis is performed in untreated MO controls. Subsequently, intracellular ATP is extracted and stabilized. Then 50 μl aliquots of each lysate is then transferred to a liminometer, e.g. a LB-953 liminometer (Berthold, Wildbad, Germany). ATP is measured, e.g. by the “firefly” light reaction after automatically pipetting 55 μl of Luciferin-Luciferase-Reagent (Lu-Lu) to each cell extract. Luminescence response expressed as Relative Light Units (RLU=photons/10) is counted for 10 seconds with a 4 second delay. An ATP standard curve is performed for all assays. MO should be greater than 100 pg/ml ATP. […] End assays are also sampled for pathology, proof that the final wells after treatment contain tumor not benign cells. […] All ATP-TCA assays were conducted as described previously herein in detail (see also, e.g., Andreotti et al., 1995, Cancer Res. 55:5276-82; Kurbacher et al., 1996, Breast Cancer Res. Treat., 41:161-70).

SMILES | activity against this patient's tumor [1] | Initial Therapeutic Index [1] | activity against this patient's tumor [2] | Initial Therapeutic Index [2] | Initial Therapeutic Index [3] | activity against this tumor [3]
CC(=O)O[C@H]1C(=O)[C@@]2(C)[C@H]([C@H](OC(=O)c3ccccc3)[C@]3(O)C[C@H](OC(=O)[C@H](O)[C@@H](NC(=O)c4ccccc4)c4ccccc4)C(C)=C1C3(C)C)[C@]1(OC(C)=O)CO[C@@H]1C[C@@H]2O [Taxol, paclitaxel] | not significantly active | 2 | single best drug | 8 | – | –
Nc1ccn([C@@H]2O[C@H](CO)[C@@H](O)C2(F)F)c(=O)n1 [Gemcitabine, gemcitabine] | not significantly active | 3 | at best moderately active | 3 | 3 | not significantly active
N.N.[Cl][Pt][Cl] [DDP, cisplatin] | – | – | – | – | 2 | not significantly active
N.N.O=C([O-])C1(C(=O)[O-])CCC1.[Pt+2] [Carboplatin] | single best drug | 10 | at best moderately active | 5 | – | –
